From patent US7524836B2, “Nitrooxyderivative steroidal compounds” (Nicox S.A., priority 2001, dated 2009)
Read-outs that look alike come from different tables or passages of the source.

Key:
[1] = Test 5: inhibition of radical production from Fe^II (desoxyribose degradation); conditions: 10^-4 M methanolic solution, 37° C. for one hour, absorbance at 532 nm
Protocol: […]
Test 5 is a […] test wherein 0.1 ml aliquots of 10^−4 M methanolic solutions of the tested products are added to test tubes containing a solution formed by 0.2 ml of 2 mM desoxyribose, 0.4 ml of phosphate buffer pH 7.4 100 mM and 0.1 ml of 1 mM Fe^II(NH4)2(SO4)2 in 2 mM HCl. […] A pink coloration is developed the intensity of which is proportional to the quantity of desoxyribose undergone to radical oxidative degradation. The solutions are cooled at room temperature and their absorbances are read at 532 nm against the blank. The inhibition induced by the precursor of B or B1 or C=-TC-Y—H in comparison with the radical production by Fe^II is determined by means of the following formula: (1−AS/AC)×100 wherein AS and AC are respectively the absorbance values of the solution containing the tested compound+the iron salt and that of the solution containing only the iron salt, the compound meets test 5 when the inhibition percentage of radical production as above defined from the precursor of B or B1 or C=-TC-Y—H is higher than or equal to 50%. […]

[2] = Test 4: inhibition of radical production from DPPH; conditions: tested substance 10^-4 M (100 μM) in methanol, 30 minutes, absorbance at 517 nm
Protocol: [drawing 21] • wherein test 4 is the following: it is an analytical determination carried out by adding portions of methanol solutions of the precursor of B or B1 at a 10^−4 M concentration, to a methanol solution of DPPH (2,2-diphenyl-1-picryl hydrazyl-free radical); after having maintained the solution at room temperature away from light for 30 minutes, it is read the absorbance at the wave length of 517 nm of the test solution and of a solution containing only DPPH in the same amount as in the test solution; and then the inhibition induced by the precursor towards radical production by DPPH is calculated as a percentage by means of the following formula: (1−AS/AC)×100 wherein AS and AC are respectively the absorbance values of the solution containing the test compound+DPPH and that of the solution containing only DPPH; the acceptance criterium of the compounds according to this test is the following: test 4 is met by B or B1 precursor compounds if the inhibition percentage as above defined is higher than or equal to 50%;
Test 4 is a […] test which affords to establish whether the orecursors of B or B1 inhibit the production of radicals from DPPH (2,2-diphenyl-1-picryl-hydrazyl) (M. S. Nenseter et Al., Atheroscler. Thromb. 15, 1338-1344, 1995). 100 μM solutions in methanol of the tested substances are prepared, and an aliquot of each of said solutions is added to a DPPH solution in methanol […]. After having stored the solutions at room temperature away from light for 30 minutes, their absorbances are read at the wave length of 517 nm, together with that of the corresponding DPPH solution at the same concentration. The absorbance decrease with respect to that of the solution of DPPH at the same concentration of the test solutions is determined. The effectiveness of the tested compound in inhibiting formation of radicals by DPPH is expressed by the following formula: (1−AS/AC)×100 wherein AS and AC are respectively the absorbance values of the solution containing the test compound together with DPPH and of the solution containing only DPPH; the compounds precursor of B or B1 meet test 4 when the inhibition percentage of radical production from DPPH, expressed as a percentage according to the above equation, is higher than or equal co 50% at the indicated concentration (10^−4 M).
The method is based on a colorimetric test in which DPPH (2,2-diphenyl-1-picryl-hydrazyl) is used as the compound-forming radicals (M. S. Nenseter et Al., Atheroscler. Thromb. 15, 1338-1344, 1995).
Solutions in methanol of the tested substances at a final concentration 100 μM are initially prepared. 0.1 ml of each of these solutions are added to aliquots of 1 ml of a methanol solution […] of DPPH and then the final volume is brought to 1.5 ml. After having stored the solutions at room temperature away from light for 30 minutes, the absorbance at the wave length of […] is read. It is determined the absorbance decrease with respect to the absorbance of a solution containing the same concentration of DPPH.
The efficacy of the test compound to inhibit the production of radicals, otherwise said antiradical activity, is expressed by the following formula: (1−AS/AC)×100 wherein AS and AC are, respectively, the absorbance values of the solution containing the test compound together+DPPH and of the solution containing only DPPH. […]

[3] = tested on: rats treated or not treated with L-NAME; design: species or system rat (Long Evans); conditions: rat, in vivo, ip; for GPT var. %: 100 mg/kg
Protocol: In those groups of rats treated, respectively, with ursodesoxycholic acid and chenodeoxycholic acid and thereof corresponding compounds according to the present invention, GPT is determined.
At the end of the four weeks access to water is prevented and after 24 hours the animals are sacrificed.
1st group receiving L-NAME (group d-comparative) administered at the same time with 100 mg/Kg (0.25 mmoles/Kg) of ursodesoxycholic acid+49.5 mg/Kg (0.25 mmoles/Kg) of ferulic acid in the same above carrier, • c. 2nd group receiving L-NAME (group e) administered with 175 mg/Kg (0.25 mmoles/Kg) of the ursodesoxycholic derivative according to the invention (ref. ex. 1) in the same above carrier.

[4] = tested on: rats treated or not treated with L-NAME; conditions: rat, in vivo, ip
Protocol: The endothelial dysfunction is evaluated by determining the damage the hepatic damage (GPT increase), and the vascular endothelium or cardiovascular damage (blood hypertension) induced by L-NAME admirnistration.
The animals (Long Evans rats, average weight 350-450 g) are divided n groups as herein below described. The group receiving L-NAME is treated for 4 weeks with said compound dissolved at the concentration of 400 mg/litre in drinking water. The following groups (No. 10 animals for group) are constituted:
• 1° group: treatment: only carrier (physiologic solution), • 2° group: trealtmrent: carrier +L-NAME, B) Groups Treated with the Drug: • 3° group: treatment: carrier+drug, • 4° group: treatment: carrier+drug+L-NAME.
Each drug is administered by intraperitoneal route once a day for 4 weeks.
Four hours after the last administration the blood-pressure is determined.
Damage to the vascular endothelium is determined, as said by the cardiovascular effects induced by L-NAME (increase of the blood pressure).
In this experiment vascular tolerability, i.e. the rise in blood pressure (vascular damage) was determined in the animals of groups b and c and expressed as percentages to that of the control group a, assumed to be 100%.

## O=C(O)C1CSCN1 (stereo not drawn) [4-thiazolidin carboxylic acid]
[1]
  % Radical Inhibition from Fe^II: 100%
[2]; 100 µM
  % inhibition radical production from DPPH: does not inhibit

## N[C@@H](CS)C(=O)O [Cysteine]
[2]; 100 µM
  % inhibition radical production from DPPH: 100%

## COc1cc(/C=C/C(=O)OCCCCO[N+](=O)[O-])ccc1OC(=O)CC[C@@H](C)[C@H]1CCC2C3C(CC[C@@]21C)[C@@]1(C)CC[C@@H](O)C[C@H]1C[C@@H]3O (stereo partly drawn) [Example 1, 3-[4-[(3α,5β,7β)-3,7-dihydroxycolan-24-oiloxy]-3-methoxyphenyl]-2-propenoic acid 4-nitroxybutyl ester]
[3]
  GPT var. %: 103%
[3]; 175 mg/kg
  GPT variation %: 123%

## COc1cc(/C=C/C(=O)OCCCCO[N+](=O)[O-])ccc1OC(=O)CC[C@@H](C)[C@H]1CCC2C3C(CC[C@@]21C)[C@@]1(C)CC[C@@H](O)C[C@H]1C[C@H]3O (stereo partly drawn) [Example 2, 3-[4-[(3α,5β,7α)-3,7-dihydroxycolan-24-oiloxy]-3-methoxyphenyl]-2-propenoic acid 4-nitroxybutyl ester]
[3]
  GPT var. %: 105%

## CC(=O)N[C@@H](CSC(=O)CCCO[N+](=O)[O-])C(=O)OCC(=O)[C@@]1(O)CC[C@H]2[C@@H]3CCC4=CC(=O)C=C[C@]4(C)[C@H]3[C@@H](O)C[C@@]21C [Example 3, (11β)-11,17-dihydroxy-21[N-acetyl-S-(4-nitroxybutyroyl)cysteinyloxy]-pregn-1,4-diene-3,20-dione]
[4]; 10 mg/kg
  Blood pressure variation %: 102%

## CC(=O)N[C@@H](CSC(=O)CCCO[N+](=O)[O-])C(=O)OCC(=O)[C@@]1(O)CC[C@H]2[C@@H]3CCC4=CC(=O)CC[C@]4(C)[C@H]3[C@@H](O)C[C@@]21C [Example 4, (11β)-11,17-Dihydroxy-21[N-acetyl-S-(4-nitroxybutyroyl)cysteinyloxy]-pregn-4-ene-3,20-dione]
[4]; 10 mg/kg
  Blood pressure variation %: 98%

## CC(=O)N[C@@H](CSC(=O)CCCO[N+](=O)[O-])C(=O)OCC(=O)[C@@]1(O)[C@H](C)C[C@H]2[C@@H]3CCC4=CC(=O)C=C[C@]4(C)[C@@]3(F)[C@@H](O)C[C@@]21C [Example 5, (11β,16α)-9-Fluoro-11,17-dihydroxy-21[N-acetyl-S-(4-nitroxybutyroyl)cysteinyloxy]-16-methylpregn-1,4-diene-3,20-dione]
[4]; 5 mg/kg
  Blood pressure variation %: 103%
[4]; 42.5 mg/kg
  Blood pressure variation %: 125%

## COc1cc(/C=C/C(=O)O)ccc1O [Ferulic acid]
[2]; 100 µM
  % inhibition radical production from DPPH: 100%

## O=C(O)c1cc(O)ccc1O [Gentisic acid]
[2]; 100 µM
  % inhibition radical production from DPPH: 80%

## CC(=O)N[C@@H](CS)C(=O)O [N-acetylcysteine]
[2]
  % inhibition radical production from DPPH: 100%

## C[C@H](CCC(=O)O)[C@H]1CC[C@H]2[C@@H]3[C@H](O)C[C@@H]4C[C@H](O)CC[C@]4(C)[C@H]3CC[C@]12C [chenodeoxycholic acid]
[3]
  GPT var. %: 150%

## C[C@@H]1C[C@H]2[C@@H]3CCC4=CC(=O)C=C[C@]4(C)[C@@]3(F)[C@@H](O)C[C@]2(C)[C@@]1(O)C(=O)CO [dexamethasone]
[4]; 5 mg/kg
  Blood pressure variation %: 125%

## C[C@]12CCC(=O)C=C1CC[C@@H]1[C@@H]2[C@@H](O)C[C@@]2(C)[C@H]1CC[C@]2(O)C(=O)CO [hydrocortisone]
[4]; 10 mg/kg
  Blood pressure variation %: 115%

## C[C@]12C=CC(=O)C=C1CC[C@@H]1[C@@H]2[C@@H](O)C[C@@]2(C)[C@H]1CC[C@]2(O)C(=O)CO [prednisolone]
[4]; 10 mg/kg
  Blood pressure variation %: 119%

## C[C@H](CCC(=O)O)[C@H]1CC[C@H]2[C@@H]3[C@@H](O)C[C@@H]4C[C@H](O)CC[C@]4(C)[C@H]3CC[C@]12C [ursodesoxycholic acid]
[3]
  GPT var. %: 130%
